Measurements taken from patent US20050113459A1, “Compositions for diabetes” (priority 2002, published 2005).

Assays:
[1] = test system: model GK rats having Type II diabetes; assay: Glucose tolerance test in model GK rats having Type II diabetes fed coenzyme Q10 feedstuff; type: in vivo, rat
From the text: (§1) The improvement effects of the reduced coenzyme Q10 and the oxidized coenzyme Q10 on the glucose tolerance were examined using model GK rats (5 weeks old, male) having Type II diabetes. The rats were fed ad libitum with a powdered feedstuff containing 0.1 percent by weight of the reduced coenzyme Q10 (containing 2 percent by weight of the oxidized coenzyme Q10) or a feedstuff containing 0.1 percent by weight of the oxidized coenzyme Q10. In order to avoid the reduced coenzyme Q10 in the feedstuff mixture from decreasing due to oxidation, the feedstuff was completely replaced with a new one every two days. The control group was fed with a powdered feedstuff free of coenzyme Q10. The glucose tolerance test was conducted four weeks and six weeks after the feeding of the feedstuff mixture was started (n=4 in each group). In the glucose tolerance test, a 50% glucose solution was orally administered at a dose of 4 ml/kg, and the blood glucose level was measured before the administration and 30 minutes, 60 minutes, 90 minutes, and 120 minutes after the administration. The blood glucose level in blood collected from the tail vein was determined with a simple blood glucose meter.

GK rats = assay: Blood glycosylated hemoglobin (hemoglobin A1c) level of GK rats fed for 12 weeks; type: in vivo, rat; conditions: GK rats fed for 12 weeks with 0.1 wt% in feedstuff
From the text: as §1
The blood glycosylated hemoglobin (hemoglobin Alc) level of GK rats fed for 12 weeks was measured as in EXAMPLE 1. […]

rats = conditions: daily dose of 1,200 mg/Kg for 52 weeks; cited from earlier work
[2] = 0.1 wt% in feedstuff, after six weeks of administration
[3] = after four weeks and six weeks of administration

| SMILES | blood glucose level in comparison with the oxidized coenzyme Q10 group ([1]; 0.1 wt% in feedstuff, after four weeks of administration, all measurement times beginning with 30 minutes after the glucose load) | glucose tolerance in comparison with that after four weeks [1, 2] | blood glucose level ([1]; 0.1 wt% in feedstuff, after six weeks of administration, all measurement points of glucose tolerance test) | increase in blood glucose level after glucose load ([1]; 0.1 wt% in feedstuff, after six weeks of administration, all measurement times) | blood glucose level 30 minutes after the peak, versus control group [1, 3] | Hemoglobin A1c level (GK rats) | toxic effects in chronic toxicity test (rats) | increase in blood glucose level 30 minutes after the glucose load, in comparison with the control group ([1]; 0.1 wt% in feedstuff, after four weeks of administration, oral glucose load) | blood glucose level from about an hour after the glucose load, in comparison with the control group [1, 3] |
| --- | --- | --- | --- | --- | --- | --- | --- | --- | --- |
| COc1c(O)c(C)c(C/C=C(\C)CC/C=C(\C)CC/C=C(\C)CC/C=C(\C)CC/C=C(\C)CC/C=C(\C)CC/C=C(\C)CC/C=C(\C)CC/C=C(\C)CCC=C(C)C)c(O)c1OC [reduced coenzyme Q10] | sharply decreased | improved to a greater extent | ≤ 200 mg/dL | strongly inhibited | significantly lower | 4.17 ± 0.15% |  |  |  |
| COC1=C(OC)C(=O)C(C/C=C(\C)CC/C=C(\C)CC/C=C(\C)CC/C=C(\C)CC/C=C(\C)CC/C=C(\C)CC/C=C(\C)CC/C=C(\C)CC/C=C(\C)CCC=C(C)C)=C(C)C1=O [coenzyme Q10] |  |  |  |  |  |  | no toxic effects |  |  |
| COC1=C(OC)C(=O)C(C/C=C(\C)CC/C=C(\C)CC/C=C(\C)CC/C=C(\C)CC/C=C(\C)CC/C=C(\C)CC/C=C(\C)CC/C=C(\C)CC/C=C(\C)CCC=C(C)C)=C(C)C1=O [oxidized coenzyme Q10, reference compound] |  | further improvements |  |  |  | 4.93 ± 0.42% |  | significantly inhibited | no large difference |
